Where “and” joins values, the source holds several entries; their conditions need not be identical. Identical values can stand only once.
What was measured:
W130Q PmIleRS2 = experiment: ATP-PPi exchange assay, mupirocin inhibition of amino acid activation; format: biochemical, Priestia (Bacillus) megaterium; conditions: for vo (initial enzyme velocity): Replica 1-3
Protocol: L-Ile and ATP concentrations ranged from 1/10 KM to 10 KM values. When measuring the KI towards one of the substrates, the other was held in saturation (concentrations at least 10 KM). The aliquots of the reaction mixture (1–2.5 μl) were quenched in 2 volumes of 500 mM NaOAc pH = 4.5, 0.1% SDS, and formed ^32P-ATP was separated from the remaining ^32P-PPi by thin-layer chromatography on Polygram CEL 300 PEI UV254 TLC plates (Macherey-Nagel, cat: 801063) using 750 mM KH2PO4 pH=3.5, 4 M urea buffer. Visualization and quantification of the signals was performed using a Typhoon Phosphoimager 5 (General Electric) and accompanying ImageQuant™ TL software (SV: 10.2). The kinetic constants were determined using a global fit option of the competitive inhibition model of GraphPad Prism 6 software (SV: 6.01). All experiments were performed in triplicates. The kcat was determined by dividing the maximal velocity, VM, with the used enzyme concentration.
Source data are provided as a Source Data file. Data are presented as the average value
± SD of three independent experiments. b) A 2Fo-Fc Fourier difference map of the W130Q-HVGH-PmIleRS2:Ile-AMS […]

ScIleRS2 = conditions: aminoacylation, with tRNA; cited from earlier work
E. coli IleRS1 = tested on: E. coli IleRS1; parameters: method as in earlier work; conditions: activation step, absence of tRNA; cited from earlier work

Compound: C/C(=C\C(=O)OCCCCCCCCC(=O)O)C[C@@H]1OC[C@H](C[C@@H]2O[C@H]2[C@@H](C)[C@H](C)O)[C@@H](O)[C@H]1O [mupirocin]
- vo (initial enzyme velocity) (W130Q PmIleRS2; c (mupirocin) = 1.0 μM, c (ATP) 5.0 mM, raw data for KI(MUP) towards ATP): 0.02357 mM/min and 0.02647 mM/min and 0.02323 mM/min
- vo (initial enzyme velocity) (W130Q PmIleRS2; c (mupirocin) = 1.0 μM, c (ATP) 10.0 mM, raw data for KI(MUP) towards ATP): 0.0305 mM/min and 0.03243 mM/min and 0.02895 mM/min
- vo (initial enzyme velocity) (W130Q PmIleRS2; c (mupirocin) = 1.0 μM, c (ATP) 15.0 mM, raw data for KI(MUP) towards ATP): 0.0343 mM/min and 0.0357 mM/min and 0.0344 mM/min
- vo (initial enzyme velocity) (W130Q PmIleRS2; c (mupirocin) = 1.0 μM, c (ATP) 25.0 mM, raw data for KI(MUP) towards ATP): 0.03769 mM/min and 0.03939 mM/min and 0.0387 mM/min
- vo (initial enzyme velocity) (W130Q PmIleRS2; c (mupirocin) = 1.0 μM, c (Ile) 10.0 μM, raw data for KI(MUP) towards Ile): 0.0192 mM/min
- vo (initial enzyme velocity) (W130Q PmIleRS2; c (mupirocin) = 1.0 μM, c (Ile) 20.0 μM, raw data for KI(MUP) towards Ile): 0.02795 mM/min and 0.02585 mM/min and 0.02685 mM/min
- vo (initial enzyme velocity) (W130Q PmIleRS2; c (mupirocin) = 1.0 μM, c (Ile) 40.0 μM, raw data for KI(MUP) towards Ile): 0.03537 mM/min and 0.0321 mM/min and 0.03467 mM/min
- vo (initial enzyme velocity) (W130Q PmIleRS2; c (mupirocin) = 1.0 μM, c (Ile) 80.0 μM, raw data for KI(MUP) towards Ile): 0.04151 mM/min and 0.04237 mM/min and 0.04366 mM/min
- vo (initial enzyme velocity) (W130Q PmIleRS2; c (mupirocin) = 1.0 μM, c (Ile) 120.0 μM, raw data for KI(MUP) towards Ile): 0.0461 mM/min and 0.04503 mM/min and 0.04686 mM/min
- vo (initial enzyme velocity) (W130Q PmIleRS2; c (mupirocin) = 5.0 μM, c (ATP) 5.0 mM, raw data for KI(MUP) towards ATP): 0.0136 mM/min and 0.01356 mM/min and 0.01125 mM/min
- vo (initial enzyme velocity) (W130Q PmIleRS2; c (mupirocin) = 5.0 μM, c (ATP) 10.0 mM, raw data for KI(MUP) towards ATP): 0.021 mM/min and 0.0203 mM/min and 0.0182 mM/min
- vo (initial enzyme velocity) (W130Q PmIleRS2; c (mupirocin) = 5.0 μM, c (ATP) 15.0 mM, raw data for KI(MUP) towards ATP): 0.02537 mM/min and 0.0244 mM/min and 0.02261 mM/min
- vo (initial enzyme velocity) (W130Q PmIleRS2; c (mupirocin) = 5.0 μM, c (ATP) 25.0 mM, raw data for KI(MUP) towards ATP): 0.02943 mM/min and 0.02877 mM/min and 0.02783 mM/min
- vo (initial enzyme velocity) (W130Q PmIleRS2; c (mupirocin) = 5.0 μM, c (Ile) 10.0 μM, raw data for KI(MUP) towards Ile): 0.00903 mM/min and 0.00774 mM/min and 0.00698 mM/min
- vo (initial enzyme velocity) (W130Q PmIleRS2; c (mupirocin) = 5.0 μM, c (Ile) 20.0 μM, raw data for KI(MUP) towards Ile): 0.01459 mM/min and 0.01343 mM/min and 0.013 mM/min
- vo (initial enzyme velocity) (W130Q PmIleRS2; c (mupirocin) = 5.0 μM, c (Ile) 40.0 μM, raw data for KI(MUP) towards Ile): 0.0221 mM/min and 0.01963 mM/min and 0.02145 mM/min
- vo (initial enzyme velocity) (W130Q PmIleRS2; c (mupirocin) = 5.0 μM, c (Ile) 80.0 μM, raw data for KI(MUP) towards Ile): 0.02978 mM/min and 0.02747 mM/min and 0.02888 mM/min
- vo (initial enzyme velocity) (W130Q PmIleRS2; c (mupirocin) = 5.0 μM, c (Ile) 120.0 μM, raw data for KI(MUP) towards Ile): 0.03377 mM/min
- vo (initial enzyme velocity) (W130Q PmIleRS2; c (mupirocin) = 10.0 μM, c (ATP) 5.0 mM, raw data for KI(MUP) towards ATP): 0.00715 mM/min and 0.00752 mM/min and 0.00698 mM/min
- vo (initial enzyme velocity) (W130Q PmIleRS2; c (mupirocin) = 10.0 μM, c (ATP) 10.0 mM, raw data for KI(MUP) towards ATP): 0.01301 mM/min and 0.0137 mM/min and 0.0124 mM/min
- vo (initial enzyme velocity) (W130Q PmIleRS2; c (mupirocin) = 10.0 μM, c (ATP) 15.0 mM, raw data for KI(MUP) towards ATP): 0.0168 mM/min and 0.01667 mM/min and 0.01548 mM/min
- vo (initial enzyme velocity) (W130Q PmIleRS2; c (mupirocin) = 10.0 μM, c (ATP) 25.0 mM, raw data for KI(MUP) towards ATP): 0.02198 mM/min and 0.0226 mM/min and 0.02035 mM/min
- vo (initial enzyme velocity) (W130Q PmIleRS2; c (mupirocin) = 10.0 μM, c (Ile) 20.0 μM, raw data for KI(MUP) towards Ile): 0.00596 mM/min and 0.0067 mM/min and 0.0071 mM/min
- vo (initial enzyme velocity) (W130Q PmIleRS2; c (mupirocin) = 10.0 μM, c (Ile) 40.0 μM, raw data for KI(MUP) towards Ile): 0.01336 mM/min and 0.01164 mM/min and 0.01202 mM/min
- vo (initial enzyme velocity) (W130Q PmIleRS2; c (mupirocin) = 10.0 μM, c (Ile) 80.0 μM, raw data for KI(MUP) towards Ile): 0.02022 mM/min and 0.01917 mM/min and 0.021 mM/min
- vo (initial enzyme velocity) (W130Q PmIleRS2; c (mupirocin) = 10.0 μM, c (Ile) 120.0 μM, raw data for KI(MUP) towards Ile): 0.0257 mM/min and 0.02427 mM/min and 0.02578 mM/min
- vo (initial enzyme velocity) (W130Q PmIleRS2; c (mupirocin) = 25.0 μM, c (ATP) 5.0 mM, raw data for KI(MUP) towards ATP): 0.00415 mM/min and 0.00472 mM/min and 0.00553 mM/min
- vo (initial enzyme velocity) (W130Q PmIleRS2; c (mupirocin) = 25.0 μM, c (ATP) 10.0 mM, raw data for KI(MUP) towards ATP): 0.0064 mM/min and 0.00737 mM/min and 0.0088 mM/min
- vo (initial enzyme velocity) (W130Q PmIleRS2; c (mupirocin) = 25.0 μM, c (ATP) 15.0 mM, raw data for KI(MUP) towards ATP): 0.01013 mM/min and 0.00993 mM/min and 0.01101 mM/min
- vo (initial enzyme velocity) (W130Q PmIleRS2; c (mupirocin) = 25.0 μM, c (ATP) 25.0 mM, raw data for KI(MUP) towards ATP): 0.01337 mM/min and 0.01219 mM/min and 0.01445 mM/min
- vo (initial enzyme velocity) (W130Q PmIleRS2; c (mupirocin) = 25.0 μM, c (Ile) 10.0 μM, raw data for KI(MUP) towards Ile): 0.0021 mM/min and 0.00205 mM/min and 0.00211 mM/min
- vo (initial enzyme velocity) (W130Q PmIleRS2; c (mupirocin) = 25.0 μM, c (Ile) 20.0 μM, raw data for KI(MUP) towards Ile): 0.00338 mM/min and 0.00346 mM/min
- vo (initial enzyme velocity) (W130Q PmIleRS2; c (mupirocin) = 25.0 μM, c (Ile) 40.0 μM, raw data for KI(MUP) towards Ile): 0.00807 mM/min and 0.00657 mM/min and 0.00667 mM/min
- vo (initial enzyme velocity) (W130Q PmIleRS2; c (mupirocin) = 25.0 μM, c (Ile) 80.0 μM, raw data for KI(MUP) towards Ile): 0.012 mM/min and 0.01121 mM/min and 0.01201 mM/min
- vo (initial enzyme velocity) (W130Q PmIleRS2; c (mupirocin) = 25.0 μM, c (Ile) 120.0 μM, raw data for KI(MUP) towards Ile): 0.01558 mM/min and 0.01519 mM/min and 0.0161 mM/min
- Ki for mupirocin compared with wild-type (W130Q PmIleRS2; kinetic analysis, Supplementary Fig. 8): remained the same
- Ki (ScIleRS2): 15 µM
- Ki (E. coli IleRS1): 0.006 µM
